Measurements reported in US20180353462A1, “[…] AGENTS […] FLAVONOID DERIVATIVES TARGETING KINASES, SIRTUINS AND ONCOGENIC AGENTS FOR THE TREATMENT OF CANCERS” (priority 2015, published 2018).

How the values were obtained:
SIRT-1 = molecular target: T1, SIRT-1 (Homo sapiens, UniProt Q96EB6); assay: Inhibition of sirtuins, SIRT-1; assay type: biochemical; conditions: Table 3 SIRT
T1 sequence (Q96EB6 1-747): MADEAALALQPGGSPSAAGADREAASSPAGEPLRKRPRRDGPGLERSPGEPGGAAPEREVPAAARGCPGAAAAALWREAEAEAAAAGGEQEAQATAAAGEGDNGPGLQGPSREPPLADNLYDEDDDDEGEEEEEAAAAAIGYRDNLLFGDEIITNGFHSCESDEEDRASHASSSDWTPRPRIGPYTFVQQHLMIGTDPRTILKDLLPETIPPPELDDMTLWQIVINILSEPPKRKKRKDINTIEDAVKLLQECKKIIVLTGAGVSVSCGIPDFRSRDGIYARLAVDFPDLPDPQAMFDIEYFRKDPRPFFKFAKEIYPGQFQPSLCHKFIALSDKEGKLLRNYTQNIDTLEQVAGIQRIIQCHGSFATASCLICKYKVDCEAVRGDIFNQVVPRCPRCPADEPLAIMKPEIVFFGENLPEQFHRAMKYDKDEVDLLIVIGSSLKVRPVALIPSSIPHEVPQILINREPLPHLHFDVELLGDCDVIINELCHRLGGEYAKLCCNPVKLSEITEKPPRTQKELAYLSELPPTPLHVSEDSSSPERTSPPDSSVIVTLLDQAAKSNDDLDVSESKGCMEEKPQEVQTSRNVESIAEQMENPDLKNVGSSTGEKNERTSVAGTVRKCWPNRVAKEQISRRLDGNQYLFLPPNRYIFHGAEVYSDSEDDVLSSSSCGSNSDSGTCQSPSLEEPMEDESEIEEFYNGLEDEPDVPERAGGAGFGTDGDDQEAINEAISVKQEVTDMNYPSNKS
From the text: Inhibition of Sirtuins, Matrix Metalloproteinase, Bromodomains was Also Confirmed Using Standard Protocols and the Results are Present in Table 2.

MELK = molecular target: T2, MELK (Homo sapiens, UniProt Q14680); assay: Kinase competition binding assay, MELK; conditions: Table 1 kinase panel
T2 construct: made in house
T2 sequence (Q14680 whole entry): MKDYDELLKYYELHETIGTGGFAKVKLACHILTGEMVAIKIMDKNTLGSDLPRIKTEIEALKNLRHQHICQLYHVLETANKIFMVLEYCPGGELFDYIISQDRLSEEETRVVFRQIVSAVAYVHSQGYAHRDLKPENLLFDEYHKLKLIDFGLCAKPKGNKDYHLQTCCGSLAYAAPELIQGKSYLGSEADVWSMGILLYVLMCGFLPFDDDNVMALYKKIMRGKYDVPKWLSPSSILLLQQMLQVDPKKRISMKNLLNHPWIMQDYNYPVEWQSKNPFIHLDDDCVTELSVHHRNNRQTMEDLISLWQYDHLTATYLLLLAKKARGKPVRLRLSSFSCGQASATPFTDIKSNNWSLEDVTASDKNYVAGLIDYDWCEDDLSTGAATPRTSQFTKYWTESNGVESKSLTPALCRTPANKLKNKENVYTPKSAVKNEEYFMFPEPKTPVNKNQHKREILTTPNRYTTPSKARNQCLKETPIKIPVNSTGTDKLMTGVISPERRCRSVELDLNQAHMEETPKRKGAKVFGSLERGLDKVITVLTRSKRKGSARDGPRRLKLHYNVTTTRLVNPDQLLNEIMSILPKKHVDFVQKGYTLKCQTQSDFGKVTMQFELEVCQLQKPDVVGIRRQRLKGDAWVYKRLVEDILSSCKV
Description: (§1) Cannabis flavonoids and their analogs were subjected to kinase inhibition assay. The compounds were first screened at a single concentration of 10 μM in the primary assay. […]. To determine the kd or IC50 values, competition binding assays were established, authenticated and executed as described previously. Fabian et al., “A Small Molecule-Kinase Interaction Map For Clinical Kinase Inhibitors.”, Nat Biotechnol, 23(3):329-36, Epub (2005). See also, Karaman et al., “A Quantitative Analysis Of Kinase Inhibitor Selectivity”, Nat. Biotechnol. […] For most assays, kinases were fused to T7 phage strains (Fabian, supra) and for the other assays, kinases were produced in HEK-293 cells after which they were tagged with DNA for quantitative PCR detection. In general, full-length constructs were used for small, single domain kinases, and catalytic domain constructs for large multi-domain kinases. The binding assays utilized streptavidin-coated magnetic beads treated with biotinylated small molecule ligands for 30 minutes at room temperature which generated affinity resins for the kinase assays. The liganded beads were blocked with excess biotin and washed with blocking buffer (SeaBlock (Pierce), 1% BSA, 0.05% Tween 20, 1 mM DTT) to remove unbound ligand and to reduce non-specific phage binding. […] Test compounds were prepared as 40× stocks in 100% DMSO and diluted directly into the assay (Final DMSO concentration=2.5%). All reactions were performed in polypropylene 384-well plates in a final volume of 0.04 ml. […] The beads were then re-suspended in elution buffer (1×PBS, 0.05% Tween 20, 0.5 μM non-biotinylated affinity ligand) and incubated at room temperature with shaking for 30 minutes. The kinase concentration in the eluates was measured by quantitative PCR. An illustration of the kinase interaction process is presented below. Kd/IC50 values were determined using a standard dose response curve using the hill equation. Curves were fitted using a non-linear least square fit with the Levenberg-Marquardt algorithm.
(§2) The compound(s) were screened at 10 μM and results for primary screen binding interactions are reported as ‘% Ctrl’, where lower numbers indicate stronger hits in the matrix.

EPHB6 = molecular target: T3, EPHB6 (Homo sapiens, UniProt O15197); assay: Kinase competition binding assay, EPHB6; conditions: Table 1 kinase panel
T3 construct: made in house
T3 sequence (O15197 32-1021): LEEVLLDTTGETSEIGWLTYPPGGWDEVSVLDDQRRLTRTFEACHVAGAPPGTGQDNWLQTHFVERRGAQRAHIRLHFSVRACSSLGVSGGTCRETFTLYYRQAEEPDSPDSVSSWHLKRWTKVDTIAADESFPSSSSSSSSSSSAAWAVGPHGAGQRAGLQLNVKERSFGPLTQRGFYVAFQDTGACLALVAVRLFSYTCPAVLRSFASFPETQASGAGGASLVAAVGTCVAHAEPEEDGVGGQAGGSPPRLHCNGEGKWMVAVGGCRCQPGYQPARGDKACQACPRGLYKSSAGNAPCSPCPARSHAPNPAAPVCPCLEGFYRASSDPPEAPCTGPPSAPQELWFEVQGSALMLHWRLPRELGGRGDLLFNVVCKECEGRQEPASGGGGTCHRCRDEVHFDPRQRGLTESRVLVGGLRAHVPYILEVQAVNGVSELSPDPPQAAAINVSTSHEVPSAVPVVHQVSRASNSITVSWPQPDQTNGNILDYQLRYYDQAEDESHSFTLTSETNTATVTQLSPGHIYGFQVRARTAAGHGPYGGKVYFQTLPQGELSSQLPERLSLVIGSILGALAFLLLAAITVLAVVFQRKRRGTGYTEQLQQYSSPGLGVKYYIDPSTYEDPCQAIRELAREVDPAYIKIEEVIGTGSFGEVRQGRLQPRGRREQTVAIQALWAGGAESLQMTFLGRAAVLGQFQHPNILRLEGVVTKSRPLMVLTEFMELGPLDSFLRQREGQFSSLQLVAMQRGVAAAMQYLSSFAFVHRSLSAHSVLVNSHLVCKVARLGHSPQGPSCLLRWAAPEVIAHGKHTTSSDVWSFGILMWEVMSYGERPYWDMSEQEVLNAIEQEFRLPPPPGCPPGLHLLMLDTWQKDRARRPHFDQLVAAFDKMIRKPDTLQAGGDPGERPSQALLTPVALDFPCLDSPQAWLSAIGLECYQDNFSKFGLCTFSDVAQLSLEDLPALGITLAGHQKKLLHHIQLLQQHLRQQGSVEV
Description: as §1, §2

PDGFRa(T674I) = molecular target: T4, PDGFRa(T674I) (Homo sapiens, UniProt P16234, T674I); assay: Kinase competition binding assay, PDGFRa(T674I); conditions: Table 1 kinase panel
T4 construct: catalytic domain constructs for large multi-domain kinases; T7 phage fusion (most assays) or DNA tag for qPCR (HEK-293-made kinases); made in house
T4 sequence (P16234 593-954 T674I limits assumed): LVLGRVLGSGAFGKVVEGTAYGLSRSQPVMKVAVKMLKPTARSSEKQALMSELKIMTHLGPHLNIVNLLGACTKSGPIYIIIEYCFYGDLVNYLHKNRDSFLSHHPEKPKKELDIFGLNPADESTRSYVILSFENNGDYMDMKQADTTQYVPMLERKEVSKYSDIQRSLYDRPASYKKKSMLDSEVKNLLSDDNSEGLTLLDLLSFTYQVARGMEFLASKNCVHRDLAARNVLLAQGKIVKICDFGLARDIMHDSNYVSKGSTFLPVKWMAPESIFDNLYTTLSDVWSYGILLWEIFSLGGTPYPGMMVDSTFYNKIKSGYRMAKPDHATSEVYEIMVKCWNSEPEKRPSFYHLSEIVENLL
Description: as §1, §2

Row | SMILES | IC50 (SIRT-1) | IC50 (MELK) | IC50 (EPHB6) | IC50 (PDGFRa(T674I))
1 | COc1cc(-c2cc(=O)c3c(O)c(C/C=C(\C)CCC=C(C)C)c(O)cc3o2)ccc1O [FBL-03A] | 19 µM | > 20000 nM | > 20000 nM | –
2 | COc1cc(-c2cc(=O)c3c(O)c(CC=C(C)C)c(O)cc3o2)ccc1O [FBL-03B] | 27.4 µM | 232 nM | > 1000 nM | 0.92 nM
3 | COc1cc(-c2cc(=O)c3c(O)cc(O)c(C/C=C(\C)CCC=C(C)C)c3o2)ccc1O [FBL-03C] | 39.5 µM | > 1000 nM | 270 nM | > 1000 nM
4 | COc1ccc(-c2cc(=O)c3c(O)c(C/C=C(\C)CCC=C(C)C)c(O)cc3o2)cc1OC [FBL-03D] | – | > 30000 nM | > 30000 nM | > 30000 nM
5 | COc1cc(-c2cc(=O)c3c(O)cc(O)c(CC=C(C)C)c3o2)ccc1O [FBL-03G] | – | 105 nM | > 1000 nM | 2360 nM
